Results published in ChEMBL document CHEMBL5512654, “Discovery of novel Thymol-TPP antibiotics that eradicate MRSA persisters” (Eur J Med Chem, 2024).
Activity calls are given as the source filed them. No cut-off for these calls is given here.

Experiments:
[1] = tested on: Staphylococcus aureus; assay: Induction of cell membrane permeability in methicillin-resistant Staphylococcus aureus USA 3390 assessed as increase in leakage of 260 nm absorbing material at 1 to 8 times of MIC; type: functional, organism-based; conditions: time <= 6.0 hrs, TDE = time-dependent effect
[2] = tested on: Pseudomonas aeruginosa; assay: Antibacterial activity against Pseudomonas aeruginosa ATCC 27853 assessed as inhibition of bacterial growth measured after 18 hrs by microplate reader; type: functional; conditions: read-out: MIC100
[3] = tested on: Staphylococcus aureus; assay: Antibacterial activity against methicillin-resistant Staphylococcus aureus USA 3390 assessed as eradication of persistence by measuring rapid killing effect 8 times of MIC concentration relative to control; type: functional
[4] = tested on: Staphylococcus aureus; assay: Bactericidal activity against methicillin-resistant Staphylococcus aureus USA 3390 assessed as reduction in CFU at 4 times of MIC concentration measured upto 1 hrs by time-kill kinetics assay; type: functional
[5] = tested on: Staphylococcus aureus; assay: Bactericidal activity against methicillin-resistant Staphylococcus aureus USA 3390 assessed as reduction in CFU at 4 times of MIC concentration measured after 24 hrs by time-kill kinetics assay; type: functional, organism-based
[6] = tested on: Acinetobacter baumannii; assay: Antibacterial activity against Acinetobacter baumannii ATCC 1318 assessed as inhibition of bacterial growth measured after 18 hrs by microplate reader; type: functional; conditions: read-out: MIC100
[7] = tested on: Cell membrane; assay: Induction of cell membrane damage in methicillin-resistant Staphylococcus aureus USA 3390 assessed as increase in fluorescence intensity at 1 to 8 times of MIC concentration measured at 5 mins by SYTOX green assay; type: cell membranes
[8] = tested on: Cell membrane; assay: Induction of cell membrane permeability in methicillin-resistant Staphylococcus aureus USA 3390 persisters assessed as increase in leakage (DNA) of 260 nm absorbing material at 1 to 8 times of MIC measured upto 5 hrs; type: cell membranes
[9] = tested on: Cell membrane; assay: Induction of cell membrane depolarization in methicillin-resistant Staphylococcus aureus USA 3390 assessed as increase in fluorescence intensity at 1 to 8 times of MIC concentration measured upto 60 mins by DiSC3-5 dye based fluorescence analysis; type: cell membranes
[10] = Cytotoxicity against human L02 cells incubated for 72 hrs by MTT dye reduction assay; type: toxicity, cell-based
[11] = tested on: Escherichia coli; assay: Antibacterial activity against Escherichia coli 53328 assessed as inhibition of bacterial growth measured after 18 hrs by microplate reader; type: functional; conditions: read-out: MIC100
[12] = tested on: Klebsiella pneumoniae; assay: Antibacterial activity against Klebsiella pneumonia 3026 assessed as inhibition of bacterial growth measured after 18 hrs by microplate reader; type: functional; conditions: read-out: MIC100
[13] = tested on: Cell membrane; assay: Induction of plasma membrane damage in methicillin-resistant Staphylococcus aureus USA 3390 at logarithmic growth phase at 4 times of MIC measured after 1 hr by Scanning electron micrographic analysis; type: cell membranes
[14] = tested on: Staphylococcus aureus; assay: Bactericidal activity against methicillin-resistant Staphylococcus aureus USA 3390 assessed as reduction in CFU at 1 times of MIC concentration measured after 1 hrs by time-kill kinetics assay; type: functional, organism-based
[15] = tested on: Cell membrane; assay: Induction of cell membrane depolarization of methicillin-resistant Staphylococcus aureus USA 3390 persisters assessed as increase in fluorescence intensity at 4 to 8 ug/ml measured at 10 mins by SYTOX green assay relative to control; type: cell membranes; conditions: dose 4-8 µg/ml
[16] = Toxicity in mouse infected with bioluminescent Staphylococcus aureus Xen29 assessed as change in body weight at 8 mg/kg, sc treated 16, 24, 36, 48, […] and 72 hrs post-infection measured after 84 hrs; type: organism-based; conditions: in vivo
[17] = tested on: Staphylococcus aureus; assay: In vivo antibacterial efficacy in bioluminescent Staphylococcus aureus Xen29 infected in mouse topical infection model assessed as decrease in fluorescence intensity at 8 mg/kg, sc treated 16, 24, 36, 48, […] hrs post-infection measured after 84 hrs; type: functional, organism-based
[18] = tested on: Cell membrane; assay: Induction of cell membrane damage in methicillin-resistant Staphylococcus aureus USA 3390 assessed as increase in fluorescence intensity at 1 to 8 times of MIC concentration measured upto 120 mins by SYTOX green assay relative to control; type: cell membranes
[19] = tested on: Cell membrane; assay: Induction of cell membrane permeability of methicillin-resistant Staphylococcus aureus USA 3390 persisters assessed as increase in fluorescence intensity at 4 to 8 ug/ml measured at 30 mins by SYTOX green assay relative to control; type: cell membranes; conditions: dose 4-8 µg/ml
[20] = tested on: Staphylococcus aureus; assay: Antibacterial activity against methicillin-resistant Staphylococcus aureus USA 3390 assessed as eradication of persistence by measuring rapid killing effect 4 times of MIC concentration measured upto 7 hrs; type: functional, organism-based
[21] = tested on: Staphylococcus aureus; assay: Bactericidal activity against methicillin-resistant Staphylococcus aureus USA 3390 assessed as reduction in CFU at 2 times of MIC concentration measured upto 4 hrs by time-kill kinetics assay; type: functional
[22] = tested on: Staphylococcus aureus; assay: Bactericidal activity against methicillin-resistant Staphylococcus aureus USA 3390 assessed as reduction in CFU at 1 times of MIC concentration measured for short time by time-kill kinetics assay; type: functional, organism-based
[23] = tested on: Staphylococcus aureus; assay: Antibacterial activity against methicillin-resistant Staphylococcus aureus USA 3390 assessed as eradication of persistence by measuring rapid killing effect 4 times of MIC concentration relative to control; type: functional
[24] = tested on: Staphylococcus aureus; assay: Induction of cell membrane permeability in methicillin-resistant Staphylococcus aureus USA 3390 assessed as increase in leakage of 260 nm absorbing material at measured upto 6 hrs; type: functional, organism-based
[25] = tested on: Staphylococcus aureus; assay: Induction of cell membrane permeability in methicillin-resistant Staphylococcus aureus USA 3390 assessed as increase absorption in leakage of 260 nm absorbing material at 1 to 8 times of MIC measured at 4 hrs; type: functional, organism-based
[26] = tested on: Klebsiella pneumoniae; assay: Antibacterial activity against Klebsiella pneumonia ATCC 700603 assessed as inhibition of bacterial growth measured after 18 hrs by microplate reader; type: functional; conditions: read-out: MIC100
[27] = tested on: Staphylococcus aureus; assay: In vivo antibacterial efficacy in bioluminescent Staphylococcus aureus Xen29 infected in mouse topical infection model assessed as reduction in number of colonies at 8 mg/kg, sc treated 16, 24, 36, 48, […] hrs post-infection measured after 84 hrs relative to control; type: functional
[28] = tested on: Staphylococcus aureus; assay: Bactericidal activity against methicillin-resistant Staphylococcus aureus USA 3390 assessed as reduction in CFU at 4 to 8 times of MIC concentration measured after 24 hrs by time-kill kinetics assay; type: functional, organism-based
[29] = tested on: Staphylococcus aureus; assay: Antibacterial activity against methicillin-resistant Staphylococcus aureus USA 3390 assessed as eradication of persistence by measuring rapid killing effect 8 times of MIC concentration measured upto 7 hrs; type: functional, organism-based
[30] = tested on: Staphylococcus aureus; assay: In vivo antibacterial efficacy in bioluminescent Staphylococcus aureus Xen29 infected in mouse topical infection model assessed as wound scabbing at 8 mg/kg, sc treated 16, 24, 36, 48, […] hrs post-infection measured after 84 hrs; type: functional, organism-based
[31] = tested on: Pseudomonas aeruginosa; assay: Antibacterial activity against Pseudomonas aeruginosa 535 assessed as inhibition of bacterial growth measured after 18 hrs by microplate reader; type: functional; conditions: read-out: MIC100
[32] = tested on: Escherichia coli; assay: Antibacterial activity against Escherichia coli ATCC 25922 assessed as inhibition of bacterial growth measured after 18 hrs by microplate reader; type: functional; conditions: read-out: MIC100
[33] = tested on: Acinetobacter baumannii; assay: Antibacterial activity against Acinetobacter baumannii ATCC 19606 assessed as inhibition of bacterial growth measured after 18 hrs by microplate reader; type: functional; conditions: read-out: MIC100
[34] = tested on: Staphylococcus aureus; assay: Drug resistance, ratio of MIC for methicillin-resistant Staphylococcus aureus USA 3390 after […] exposure to MIC for methicillin-resistant Staphylococcus aureus USA 3390 after first exposure; type: functional
[35] = tested on: Staphylococcus aureus; assay: Bactericidal activity against methicillin-resistant Staphylococcus aureus USA 3390 assessed as reduction in CFU at 1 times of MIC concentration measured after 24 hrs by time-kill kinetics assay; type: functional, organism-based
[36] = tested on: Staphylococcus aureus; assay: Bactericidal activity against methicillin-resistant Staphylococcus aureus USA 3390 assessed as reduction in CFU at 2 times of MIC concentration measured after 24 hrs by time-kill kinetics assay; type: functional, organism-based
[37] = tested on: Cell membrane; assay: Induction of cell membrane damage in methicillin-resistant Staphylococcus aureus USA 3390 assessed as rough/shrunken and wrinkled surface at logarithmic growth phase at 4 times of MIC measured after 1 hr by Scanning electron micrographic analysis; type: cell membranes

Cc1cc(OC(=O)CCCCC[P+](c2ccccc2)(c2ccccc2)c2ccccc2)c(C(C)C)cc1-c1ccccc1.[Br-]
Activity [1]: Tde | MIC [2]: 32 µg/mL | Activity [3]: 99.999% | Activity [4]: >=2 log10CFU/ml | Activity [5]: Active | MIC [6]: 8 µg/mL | Activity [7]: Active | Activity [8]: Active | Activity [9]: Active | IC50 at 72 h [10]: 34.3 µg/mL | MIC [11]: 8 µg/mL | MIC [12]: 16 µg/mL | Activity [13]: Active | Activity [14]: Active | Activity [15]: Active | Activity [16]: Non-Toxic | Activity [17]: Active | Activity [18]: Active | Activity [19]: Active | Activity [20]: Active | Activity [21]: >=2 log10CFU/ml | Activity [22]: Active | Activity [23]: 99.99% | Activity [24]: Dose-Dependent Effect | Activity [25]: Active | MIC [26]: 8 µg/mL | fold change (FC) [27]: 10 | Activity [28]: Active | Activity [29]: Active | Activity [30]: Active | MIC [31]: 64 µg/mL | MIC [32]: 8 µg/mL | MIC [33]: 8 µg/mL | Ratio [34]: 4 | Activity [35]: Active | Activity [36]: inactive | Activity [37]: Active
